From patent publication US11208405B2, “Pyrrole derivatives as PLK1 inhibitors” (SENTINEL ONCOLOGY LIMITED, priority 2017, dated 2021)
pIC50: −log10 of the molar value. Structures can show the parent of a compound that is named as a salt.

Experiments:
GSG2 = molecular target: T1, GSG2 (Homo sapiens, UniProt Q8TF76); assay: Kinase selectivity assay (DiscoverX KinomeScreen), GSG2; format: binding; settings: GSG2, 5 μM; read-out: % Control
T1 construct: purchased DiscoverX
Description: (§1) The compound of Example 33 was tested for off-target activity against a panel of fifty five kinases bearing functional or structural similarity to PLK1 at a concentration of 5 μM using the DiscoverX KinomeScreen assay.

AURKB = molecular target: T2, AURKB (Homo sapiens, UniProt Q96GD4); assay: Kinase selectivity assay (DiscoverX KinomeScreen), AURKB; format: binding; settings: read-out: % Control
T2 construct: purchased DiscoverX
Description: as §1

BUB1 = molecular target: T3, BUB1 (Homo sapiens, UniProt O43683); assay: Kinase selectivity assay (DiscoverX KinomeScreen), BUB1; format: binding; settings: BUB1, 5 μM; read-out: % Control
T3 construct: purchased DiscoverX
Description: as §1

PKMYT1 = molecular target: T4, PKMYT1 (Homo sapiens, UniProt Q99640); assay: Kinase selectivity assay (DiscoverX KinomeScreen), PKMYT1; format: binding; settings: PKMYT1, 5 μM; read-out: % Control
T4 construct: purchased DiscoverX
Description: as §1

WEE2 = molecular target: T5, WEE2 (Homo sapiens, UniProt P0C1S8); assay: Kinase selectivity assay (DiscoverX KinomeScreen), WEE2; format: binding; settings: WEE2, 5 μM; read-out: % Control
T5 construct: purchased DiscoverX
Description: as §1

[1] = test system: glioblastoma cell line 687586; assay: Glioblastoma cancer cell viability, cell line 687586; format: cell-based
Description: (§2) Assay to Measure the Effects of Compounds of the Invention on Glioblastoma Cancer Cell Viability
(§3) The compound of Example 33 was tested for inhibitory activity against the glioblastoma cell lines in Table 7 below.

HCT116 xenograft tumours = assay: In vivo anti-cancer activity in mice bearing HCT116 tumours; settings: oral 50 mg/kg or 200 m/kg on days 1, 3, 7, 10 and 13, dose of the T/C value not stated
Description: In Vivo Anti-Cancer Activity in Mice Bearing HCT116 Tumours
Mice bearing HCT116 xenograft tumours were give oral dosages of either 50 mg/kg or […] on days 1, 3, 7, 10 and 13 and the tumour volumes measured at days 1, 3, 5, 8, 10, 12 and 15. Tumour volumes in a control group of tumour-bearing mice, who had received vehicle only at the same time points were also measured.

[2] = Determination of oral bioavailability (plasma pharmacokinetics i.v. and p.o.); format: in vivo, Male CD-1 mice; settings: mice
Description: Determination of Oral Bioavailability The oral bioavailability of the compound of Example 33 was determined in mice and compared with the bioavailability following intravenous injection using the following protocol. […] N=3 mice per time point with 15 ul plasma per aliquot.

NEK3 = molecular target: T6, NEK3 (Homo sapiens, UniProt P51956); assay: Kinase selectivity assay (DiscoverX KinomeScreen), NEK3; format: binding; settings: NEK3, 5 μM; read-out: % Control
T6 construct: purchased DiscoverX
Description: as §1

[3] = test system: HCT116 cells (a mutant KRAS G-13D expressing cell line); assay: Drug resistance studies in HCT116 cells; format: cell-based; settings: five times the half maximal growth inhibiting amount, twenty two days
[4] = test system: glioblastoma cell line 909905; assay: Glioblastoma cancer cell viability, cell line 909905; format: cell-based
Description: as §2, §3

cytochrome P450 2C9 = cytochrome P450 2C9 (Homo sapiens, UniProt P11712); assay: Cytochrome P450 inhibition, 2C9; format: in vitro ADME
[5] = test system: glioblastoma cell line 949094; assay: Glioblastoma cancer cell viability, cell line 949094; format: cell-based
Description: as §2, §3

[6] = test system: glioblastoma cell line 909745; assay: Glioblastoma cancer cell viability, cell line 909745; format: cell-based
Description: as §2, §3

CAMKK1 = molecular target: T7, CAMKK1 (Homo sapiens, UniProt Q8N5S9); assay: Kinase selectivity assay (DiscoverX KinomeScreen), CAMKK1; format: binding; settings: CAMKK1, 5 μM; read-out: % Control
T7 construct: purchased DiscoverX
Description: as §1

NEK5 = molecular target: T8, NEK5 (Homo sapiens, UniProt Q6P3R8); assay: Kinase selectivity assay (DiscoverX KinomeScreen), NEK5; format: binding; settings: NEK5, 5 μM; read-out: % Control
T8 construct: purchased DiscoverX
Description: as §1

CSNK2A1 = molecular target: T9, CSNK2A1 (Homo sapiens, UniProt P68400); assay: Kinase selectivity assay (DiscoverX KinomeScreen), CSNK2A1; format: binding; settings: CSNK2A1, 5 μM; read-out: % Control
T9 construct: purchased DiscoverX
Description: as §1

NEK10 = molecular target: T10, NEK10 (Homo sapiens, UniProt Q6ZWH5); assay: Kinase selectivity assay (DiscoverX KinomeScreen), NEK10; format: binding; settings: NEK10, 5 μM; read-out: % Control
T10 construct: purchased DiscoverX
Description: as §1

CHUK = molecular target: T11, CHUK (Homo sapiens, UniProt O15111); assay: Kinase selectivity assay (DiscoverX KinomeScreen), CHUK; format: binding; settings: read-out: % Control
T11 construct: purchased DiscoverX
Description: as §1

[7] = male, CD-1, mouse, 2 mg/kg IV, plasma
[8] = male, CD-1, mouse, 10 mg/Kg PO, plasma

T8 sequence (Q6P3R8 whole entry): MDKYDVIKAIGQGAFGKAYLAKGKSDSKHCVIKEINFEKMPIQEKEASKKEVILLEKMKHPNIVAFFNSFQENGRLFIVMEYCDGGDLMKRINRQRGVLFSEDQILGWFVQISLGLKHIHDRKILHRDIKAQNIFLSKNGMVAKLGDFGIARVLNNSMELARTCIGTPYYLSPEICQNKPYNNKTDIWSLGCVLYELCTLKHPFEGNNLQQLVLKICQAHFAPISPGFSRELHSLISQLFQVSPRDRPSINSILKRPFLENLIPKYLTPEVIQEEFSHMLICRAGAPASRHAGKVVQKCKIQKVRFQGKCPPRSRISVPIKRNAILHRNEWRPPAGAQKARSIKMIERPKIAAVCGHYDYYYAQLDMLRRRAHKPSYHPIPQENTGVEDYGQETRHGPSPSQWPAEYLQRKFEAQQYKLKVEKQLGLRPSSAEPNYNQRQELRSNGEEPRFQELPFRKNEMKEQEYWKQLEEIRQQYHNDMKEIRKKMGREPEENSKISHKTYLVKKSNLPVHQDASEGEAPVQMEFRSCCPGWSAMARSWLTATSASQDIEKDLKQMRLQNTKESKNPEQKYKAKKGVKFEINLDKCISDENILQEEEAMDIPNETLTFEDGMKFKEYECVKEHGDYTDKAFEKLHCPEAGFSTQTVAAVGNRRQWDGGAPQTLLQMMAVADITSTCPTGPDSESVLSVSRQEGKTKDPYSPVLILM
cytochrome P450 2C9, sequence (P11712 whole entry): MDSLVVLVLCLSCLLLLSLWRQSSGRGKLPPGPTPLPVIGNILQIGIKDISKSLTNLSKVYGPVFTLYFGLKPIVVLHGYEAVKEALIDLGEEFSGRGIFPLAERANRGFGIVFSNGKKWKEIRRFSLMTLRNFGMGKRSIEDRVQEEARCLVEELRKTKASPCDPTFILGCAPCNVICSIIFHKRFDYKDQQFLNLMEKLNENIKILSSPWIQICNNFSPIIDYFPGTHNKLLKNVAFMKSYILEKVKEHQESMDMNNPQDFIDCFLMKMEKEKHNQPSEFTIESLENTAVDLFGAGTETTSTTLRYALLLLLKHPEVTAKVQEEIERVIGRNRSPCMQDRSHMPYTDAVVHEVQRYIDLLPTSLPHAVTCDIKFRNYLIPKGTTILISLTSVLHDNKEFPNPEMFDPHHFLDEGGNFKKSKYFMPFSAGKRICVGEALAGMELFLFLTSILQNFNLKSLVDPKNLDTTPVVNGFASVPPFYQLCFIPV
T5 sequence (P0C1S8 whole entry): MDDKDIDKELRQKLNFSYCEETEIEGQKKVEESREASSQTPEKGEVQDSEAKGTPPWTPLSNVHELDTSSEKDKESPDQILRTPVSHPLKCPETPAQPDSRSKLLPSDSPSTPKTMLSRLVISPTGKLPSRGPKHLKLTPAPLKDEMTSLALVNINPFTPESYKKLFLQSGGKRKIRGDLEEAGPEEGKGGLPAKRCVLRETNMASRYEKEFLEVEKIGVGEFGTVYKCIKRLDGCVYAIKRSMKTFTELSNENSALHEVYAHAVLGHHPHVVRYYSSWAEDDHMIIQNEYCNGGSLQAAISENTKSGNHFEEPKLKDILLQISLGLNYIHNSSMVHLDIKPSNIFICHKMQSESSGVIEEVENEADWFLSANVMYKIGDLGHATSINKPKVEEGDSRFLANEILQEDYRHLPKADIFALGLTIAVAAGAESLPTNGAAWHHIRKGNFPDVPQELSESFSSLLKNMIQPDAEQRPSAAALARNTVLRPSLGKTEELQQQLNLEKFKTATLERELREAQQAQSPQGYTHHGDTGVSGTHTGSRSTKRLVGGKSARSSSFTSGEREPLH
T6 sequence (P51956 whole entry): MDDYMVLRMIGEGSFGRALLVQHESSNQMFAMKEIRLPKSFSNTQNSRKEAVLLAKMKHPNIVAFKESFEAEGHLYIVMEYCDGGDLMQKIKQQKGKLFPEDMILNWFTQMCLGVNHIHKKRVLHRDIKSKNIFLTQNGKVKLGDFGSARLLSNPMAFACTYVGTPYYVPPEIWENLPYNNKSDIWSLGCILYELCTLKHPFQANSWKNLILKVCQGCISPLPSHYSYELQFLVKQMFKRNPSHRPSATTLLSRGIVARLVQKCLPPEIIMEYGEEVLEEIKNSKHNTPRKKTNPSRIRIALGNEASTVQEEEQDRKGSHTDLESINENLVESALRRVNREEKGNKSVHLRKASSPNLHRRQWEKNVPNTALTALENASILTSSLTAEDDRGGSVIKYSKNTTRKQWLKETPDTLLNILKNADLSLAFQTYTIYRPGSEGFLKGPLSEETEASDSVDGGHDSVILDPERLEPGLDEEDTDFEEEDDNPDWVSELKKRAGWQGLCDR
T3 sequence (O43683 whole entry): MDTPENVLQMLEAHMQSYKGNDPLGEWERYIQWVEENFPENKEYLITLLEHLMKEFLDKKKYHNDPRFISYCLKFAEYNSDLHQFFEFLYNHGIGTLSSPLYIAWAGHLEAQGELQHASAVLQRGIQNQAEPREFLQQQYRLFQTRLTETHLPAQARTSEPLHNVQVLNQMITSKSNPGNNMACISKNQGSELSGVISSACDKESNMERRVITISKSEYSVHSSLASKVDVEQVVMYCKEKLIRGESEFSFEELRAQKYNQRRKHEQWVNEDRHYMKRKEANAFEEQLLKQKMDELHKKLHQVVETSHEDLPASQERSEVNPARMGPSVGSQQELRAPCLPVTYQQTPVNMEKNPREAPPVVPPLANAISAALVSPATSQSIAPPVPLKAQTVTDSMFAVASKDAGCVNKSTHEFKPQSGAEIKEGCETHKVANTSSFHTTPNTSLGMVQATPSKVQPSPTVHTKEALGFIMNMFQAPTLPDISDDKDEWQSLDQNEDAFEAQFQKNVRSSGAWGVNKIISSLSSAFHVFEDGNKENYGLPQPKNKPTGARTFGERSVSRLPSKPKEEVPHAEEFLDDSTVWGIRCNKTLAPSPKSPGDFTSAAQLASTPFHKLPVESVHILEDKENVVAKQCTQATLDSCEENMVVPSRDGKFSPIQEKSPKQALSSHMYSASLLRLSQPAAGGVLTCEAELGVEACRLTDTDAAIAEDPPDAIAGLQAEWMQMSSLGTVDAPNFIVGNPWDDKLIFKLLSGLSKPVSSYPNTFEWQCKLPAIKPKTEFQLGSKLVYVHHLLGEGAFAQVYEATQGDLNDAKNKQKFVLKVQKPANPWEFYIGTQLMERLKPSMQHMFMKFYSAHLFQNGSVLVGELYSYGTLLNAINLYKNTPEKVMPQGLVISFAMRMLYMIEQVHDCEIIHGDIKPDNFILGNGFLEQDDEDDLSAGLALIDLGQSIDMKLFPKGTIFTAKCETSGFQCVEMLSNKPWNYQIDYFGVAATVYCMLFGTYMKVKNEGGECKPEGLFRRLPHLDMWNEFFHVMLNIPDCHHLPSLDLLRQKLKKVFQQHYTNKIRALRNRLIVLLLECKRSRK
T10 sequence (Q6ZWH5 whole entry): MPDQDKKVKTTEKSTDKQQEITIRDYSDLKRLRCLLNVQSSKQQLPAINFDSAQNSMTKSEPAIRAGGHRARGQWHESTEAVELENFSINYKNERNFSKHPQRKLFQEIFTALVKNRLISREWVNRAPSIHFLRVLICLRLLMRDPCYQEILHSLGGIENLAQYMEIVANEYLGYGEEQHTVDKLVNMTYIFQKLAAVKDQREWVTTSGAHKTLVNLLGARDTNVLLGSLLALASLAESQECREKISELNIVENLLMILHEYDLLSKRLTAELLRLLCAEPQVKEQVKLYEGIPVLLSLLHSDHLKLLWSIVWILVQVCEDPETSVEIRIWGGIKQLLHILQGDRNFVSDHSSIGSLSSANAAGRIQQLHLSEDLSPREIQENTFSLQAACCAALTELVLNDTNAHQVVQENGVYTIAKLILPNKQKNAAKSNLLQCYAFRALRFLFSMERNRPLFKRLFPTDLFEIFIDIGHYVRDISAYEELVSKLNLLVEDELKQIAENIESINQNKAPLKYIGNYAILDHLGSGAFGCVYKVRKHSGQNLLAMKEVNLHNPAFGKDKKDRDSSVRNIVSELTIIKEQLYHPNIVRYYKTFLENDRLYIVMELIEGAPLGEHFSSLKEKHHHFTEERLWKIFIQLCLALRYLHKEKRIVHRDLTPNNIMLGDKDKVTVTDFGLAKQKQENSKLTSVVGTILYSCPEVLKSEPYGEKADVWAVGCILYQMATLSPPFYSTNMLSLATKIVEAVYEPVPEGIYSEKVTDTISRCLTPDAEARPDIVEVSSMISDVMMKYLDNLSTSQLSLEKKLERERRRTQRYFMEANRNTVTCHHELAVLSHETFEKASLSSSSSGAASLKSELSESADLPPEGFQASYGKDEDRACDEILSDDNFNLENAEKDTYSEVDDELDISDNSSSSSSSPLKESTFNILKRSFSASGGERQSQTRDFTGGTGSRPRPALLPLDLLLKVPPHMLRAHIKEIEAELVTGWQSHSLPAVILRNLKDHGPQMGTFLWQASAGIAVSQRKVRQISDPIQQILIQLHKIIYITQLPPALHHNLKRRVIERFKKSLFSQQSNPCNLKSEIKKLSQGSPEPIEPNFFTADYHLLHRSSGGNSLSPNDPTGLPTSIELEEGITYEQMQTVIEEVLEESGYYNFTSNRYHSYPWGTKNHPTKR
T7 sequence (Q8N5S9 whole entry): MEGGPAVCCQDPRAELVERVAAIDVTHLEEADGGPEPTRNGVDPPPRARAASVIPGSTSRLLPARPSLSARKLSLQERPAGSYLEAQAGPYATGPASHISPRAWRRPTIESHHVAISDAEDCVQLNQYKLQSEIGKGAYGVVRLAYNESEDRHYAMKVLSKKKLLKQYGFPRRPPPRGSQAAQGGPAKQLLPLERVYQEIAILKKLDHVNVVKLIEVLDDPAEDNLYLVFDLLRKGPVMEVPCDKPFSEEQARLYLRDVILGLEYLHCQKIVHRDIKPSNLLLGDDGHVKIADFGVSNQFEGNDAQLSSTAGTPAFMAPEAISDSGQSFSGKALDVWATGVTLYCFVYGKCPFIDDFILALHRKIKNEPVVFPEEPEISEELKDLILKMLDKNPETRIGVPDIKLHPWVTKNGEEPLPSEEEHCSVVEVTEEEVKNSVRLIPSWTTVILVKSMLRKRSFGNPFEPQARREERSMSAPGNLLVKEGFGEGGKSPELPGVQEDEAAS

CN(C)CCNC(=O)c1ccc(-c2ccc(-c3ccc(Cl)cc3)n2-c2ccccc2C(F)(F)F)cc1 [Example 33, 4-[5-(4-chlorophenyl)-1-[2-(trifluoromethyl)phenyl]pyrrol-2-yl]-N-[2-(dimethylamino)ethyl]benzamide Hydrochloride]
remaining activity at 5 µM (GSG2): 77% | remaining activity at 5 µM (AURKB): 95% | remaining activity at 5 µM (BUB1): 90% | remaining activity at 5 µM (PKMYT1): 100% | remaining activity at 5 µM (WEE2): 92% | pIC50 [1]: 6.31 | effect on tumour growth (T/C) (HCT116 xenograft tumours): 48% | AUC(0-inf) [2, 7]: 2100 ng·h/mL | Cmax [2, 7]: 873 ng/mL | half-life ([2]; male, CD-1, mouse, 2 mg/kg IV, plasma, read-out: T½ (converted)): 13 h | Vd ([2]; male, CD-1, mouse, 2 mg/kg IV, plasma, read-out: Vss): 17 L/kg | AUC(0-inf) [2, 8]: 9800 ng·h/mL | Cmax [2, 8]: 415 ng/mL | CI ([2]; 2 mg/kg IV, plasma): 16 mL/min/kg | F ([2]; 10 mg/Kg PO versus 2 mg/kg IV): 93% | T½ ([2]; 10 mg/Kg PO, plasma): 15 h | Vz ([2]; 10 mg/Kg PO, plasma): 23 L/kg | remaining activity at 5 µM (NEK3): 74% | formation of drug-resistant colonies [3]: not | pIC50 [4]: 6.56 | cytochrome P450 inhibition 2C9 (cytochrome P450 2C9): > 10 µM | pIC50 [5]: 6.15 | pIC50 [6]: 5.86 | remaining activity at 5 µM (CAMKK1): 91% | remaining activity at 5 µM (NEK5): 99% | remaining activity at 5 µM (CSNK2A1): 96% | remaining activity at 5 µM (NEK10): 94% | remaining activity at 5 µM (CHUK): 100%
